Each structure is given as a SMILES string.

The subject of one assay is NCI-H929 cells. Nature of the assay: NCI-H929 cell proliferation assay (CellTiter-Glo). The assay is classed as cell-based. The following applies: 72 h compound treatment. How it is done:
NCI-H929 Cell Proliferation Assay
Cell proliferation was measured using the CellTiter-Glo® Luminescent Cell Viability Assay. The assay involved the addition of a single reagent (CellTiter-Glo® Reagent) directly to cells cultured in serum-supplemented medium. NCI-H929 (ATCC CRL-9068) cells were cultured according to ATCC recommendations and were seeded at 3,000 cells per well.
Each compound evaluated was prepared as a DMSO stock solution (10 mM). Compounds were tested in duplicate on each plate, with a 10-point serial dilution curve (1:3 dilution). Compound treatment ([…]) was added from the compound dilution plate to the cell plate. The highest compound concentration was 10 μM (final), with a 0.1% final DMSO concentration. Plates were then incubated at 37° C., 5% CO2. After 72 h of compound treatment, cell plates were equilibrated at rt for approximately 30 mins. An equi-volume amount of CellTiter-Glo® Reagent (40 μL) was added to each well. Plates were mixed for 2 mins on an orbital shaker to induce cell lysis and then incubated at rt for 10 mins to stabilize the luminescent signal. Luminescence was recorded using an Envision plate reader according to CellTiter-Glo protocol. IC50 of each compound was calculated using GraphPad Prism by nonlinear regression analysis.
In general terms: Cellular ATP, detected with luciferase, serves as a proxy for viable cell number.
As for `CN1Cc2cc(n(C)n2)CSc2cc3c(c(c2)OCCCc2c(C(=O)O)n(C)c4c(c(Cl)ccc24)-c2c(nn4c2CCCC4)C1)NCCC3` (atropisomer, axis not shown; (Ra)) [Example 4A, (Ra)-(+)-(Z)-1^6-Chloro-1^1,6^1,4-trimethyl-2^4,2^5,2^6,2^7,9^1,9^2,9^3,9^4-octahydro-1^1H,6^1H-10-oxa-8-thia-4-aza-9(6,8)-quinolina-2(3,2)-pyrazolo[1,5-a]pyridina-1(7,3)-indola-6(3,5)-pyrazolacyclotridecaphane-1^2-carboxylic acid], the concentration for half-maximal inhibition (IC50) (commonly the concentration that inhibits the measured activity by half) was ≥ 1000 nM.

For the compound `Cc1nn(C23CC(C2)C3)c2c1-c1c(Cl)ccc3c(c(C(=O)O)n(C)c13)CCCOc1cc(cc3c1NCCC3)SCc1cc(nn1C)CSC2` (atropisomer, axis not shown; (Ra)) [Example 9A, (Ra)-(+)-(Z)-2^1-(Bicyclo [1.1.1]pentan-1-yl)-1^6-chloro-1^1,2^3,6^1-trimethyl-9^1,9^2,9^3,9^4-tetrahydro-1^1H,2^1H,6^1H-10-oxa-4,8-dithia-9(6,8)-quinolina-1(7,3)-indola-2(4,5),6(3,5)-dipyrazolacyclotridecaphane-1^2-carboxylic acid], the half-inhibitory concentration (IC50) was ≥ 1000 nM.

For the compound `CN1Cc2cc(n(C)n2)CCc2cc3c(c(c2)OCCCc2c(C(=O)O)n(C)c4c(c(Cl)ccc24)-c2c(nn4c2CCC4)C1)NCCC3` (atropisomer, axis not shown; (Ra)) [Example 5A, (Ra)-(+)-(Z)-1^6-Chloro-1^1,6^1,4-trimethyl-2^5,2^6,9^1,9^2,9^3,9^4-hexahydro-1^1H,2^4H,6^1H-10-oxa-4-aza-9(6,8)-quinolina-1(7,3)-indola-2(3,2)-pyrrolo[1,2-b]pyrazola-6(3,5)-pyrazolacyclotridecaphane-1^2-carboxylic acid], the 50% inhibitory concentration (IC50) was ≤ 100 nM.

For `CCn1nc(C)c2c1CSCc1cc(n(C)n1)CSc1cc3c(c(c1)OCCCc1c(C(=O)O)n(C)c4c-2c(Cl)ccc14)NCCC3` (atropisomer, axis not shown; (Ra)) [Example 14A, (Ra)-(+)-(Z)-1^6-Chloro-2^1-ethyl-1^1,2^3,6^1-trimethyl-9^1,9^2,9^3,9^4-tetrahydro-1^1H,2^1H,6^1H-10-oxa-4,8-dithia-9(6,8)-quinolina-1(7,3)-indola-2(4,5),6(3,5)-dipyrazolacyclotridecaphane carboxylic acid], the half-inhibitory concentration (IC50) is ≤ 100 nM.

As for `CN1Cc2cc(n(C)n2)CSc2cc3c(c(c2)OCCCc2c(C(=O)O)n(C)c4c(c(Cl)ccc24)-c2c(nn4c2CCCC4)C1)NCCC3` (atropisomer, axis not shown; (Sa)) [Example 4B, (Sa)-(−)-(Z)-1^6-Chloro-1^1,6^1,4-trimethyl-2^4,2^5,2^6,2^7,9^1,9^2,9^3,9^4-octahydro-1^1H,6^1H-10-oxa-8-thia-4-aza-9(6,8)-quinolina-2(3,2)-pyrazolo[1,5-a]pyridina-1(7,3)-indola-6(3,5)-pyrazolacyclotridecaphane-1^2-carboxylic acid], the half-maximal inhibitory concentration (IC50) is ≤ 100 nM.

For the compound `CN1Cc2cc(n(C)n2)CSc2cc3c(c(c2)OCCCc2c(C(=O)O)n(C)c4c(c(Cl)ccc24)-c2c(nn4c2CCC4)C1)NCCC3` (atropisomer, axis not shown; (Ra)) [Example 3A, (Ra)-(+)-(Z)-1^6-Chloro-1^1,6^1,4-trimethyl-2^5,2^6,9^1,9^2,9^3,9^4-hexahydro-1^1H,2^4H,6^1H-10-oxa-8-thia-4-aza-9(6,8)-quinolina-1(7,3)-indola-2(3,2)-pyrrolo[1,2-b]pyrazola-6(3,5)-pyrazolacyclotridecaphane-1^2-carboxylic acid], the IC50 is ≥ 1000 nM.

As for `CCn1nc(C)c2c1CSCc1cc(n(C)n1)CSc1cc3c(c(c1)OCCCc1c(C(=O)O)n(C)c4c-2c(Cl)ccc14)NCCC3` (atropisomer, axis not shown; (Sa)) [Example 14B, (Sa)-(−)-(Z)-1^6-Chloro-2^1-ethyl-1^1,2^3,6^1-trimethyl-9^1,9^2,9^3,9^4-tetrahydro-1^1H,2^1H,6^1H-10-oxa-4,8-dithia-9(6,8)-quinolina-1(7,3)-indola-2(4,5),6(3,5)-dipyrazolacyclotridecaphane-1^2-carboxylic acid], the 50% inhibitory concentration (IC50) was ≥ 1000 nM.

Staying with this assay, now noted: Homo sapiens, NCI-H929, 72 h, 72 h compound treatment.
Consider `Cn1nc2cc1CSc1cc3c(c(c1)OCCCc1c(C(=O)O)n(C)c4c(c(Cl)ccc14)-c1c(nn4c1CCCC4)CSC2)NCCC3` (single isomer, unassigned) [Example 2A, (Ra)-(+)-(Z)-1^6-chloro-1^1,6^1-dimethyl-2^4,2^5,2^6,2^7,9^1,9^2,9^3,9^4-octahydro-1^1H,6^1H-10-oxa-4,8-dithia-9(6,8)-quinolina-2(3 ,2)-pyrazolo[1,5-a]pyridina-1(7 ,3)-indola-6(3,5)-pyrazolacyclotridecaphane-1^2-carboxylic acid], for which the IC50 is ≤ 100 nM.

On to `Cn1nc2cc1CSc1cc3c(c(c1)OCCCc1c(C(=O)O)n(C)c4c(c(F)ccc14)-c1c(nn4c1CCC4)CSC2)NCCC3` (atropisomer, axis not shown; (Ra)) [Example 7A, (Ra)-(+)-(Z)-1^6-Fluoro-1^1,6^1-dimethyl-2^5,2^6,9^1,9^2,9^3,9^4-hexahydro-1^1H,2^4H,6^1H-10-oxa-4,8-dithia-9(6,8)-quinolina-1(7,3)-indola-2(3,2)-pyrrolo[1,2-b]pyrazola-6(3,5)-pyrazolacyclotridecaphane-1^2-carboxylic acid], for which the IC50 lay within 100 to 1000 nM.

For the compound `CO[C@H]1/C=C/C[C@H](C)[C@@H](C)S(=O)(=O)NC(=O)c2ccc3c(c2)N(C[C@@H]2CC[C@H]21)C[C@@]1(CCCc2cc(Cl)ccc21)CO3` [AMG176, reference compound], the 50% inhibitory concentration (IC50) fell in the range of 100 to 1000 nM.

As for `Cn1nc2cc1CSc1cc3c(c(c1)OCCCc1c(C(=O)O)n(C)c4c(c(Cl)ccc14)-c1c(nn4c1CCC4)CSC2)NCCC3` (atropisomer, axis not shown; (Sa)) [Example 1B, (Sa)-(−)-(Z)-1^6-Chloro-1^1,6^1-dimethyl-2^5,2^6,9^1,9^2,9^3,9^4-hexahydro-1^1H,2^4H,6^1H-10-oxa-4,8-dithia-9(6,8)-quinolina-1(7,3)-indola-2(3 ,2)-pyrrolo[1,2-b]pyrazola-6(3,5)-pyrazolacyclotridecaphane-1^2-carboxylic acid], the IC50 is ≥ 1000 nM.

On to `CN1CCCc2cc3cc(c21)OCCCc1c(C(=O)O)n(C)c2c(c(Cl)ccc12)-c1c(nn2c1CCC2)CSCc1cc(n(C)n1)CS3` (atropisomer, axis not shown; (Ra)) [Example 13A, (Ra)-(+)-(Z)-1^6-Chloro-1^1,6^1,9^1-trimethyl-2^5,2^6,9^1,9^2,9^3,9^4-hexahydro-1^1H,2^4H,6^1H-10-oxa-4,8-dithia-9(6,8)-quinolina-1(7,3)-indola-2(3,2)-pyrrolo[1,2-b]pyrazola-6(3,5)-pyrazolacyclotridecaphane-1^2-carboxylic acid], for which the IC50 is ≥ 1000 nM.

Turning to `Cc1c2c(nn1C)CSCc1cc(n(C)n1)CSc1cc(c3ccccc3c1)OCCCc1c(C(=O)O)n(C)c3c-2c(Cl)ccc13` [AZD5991, reference compound], the concentration for half-maximal inhibition (IC50) was ≤ 100 nM.

For `Cn1nc2cc1CSc1cc3c(c(c1)OCCCc1c(C(=O)O)n(C)c4c(c(Cl)ccc14)-c1c(nn4c1CCC4)CSC2)NCCC3` (single isomer, unassigned) [Example 1A, (Ra)-(+)-(Z)-1^6-Chloro-1^1,6^1-dimethyl-2^5,2^6,9^1,9^2,9^3,9^4-hexahydro-1^1H,2^4H,6^1H-10-oxa-4,8-dithia-9(6,8)-quinolina-1(7,3)-indola-2(3,2)-pyrrolo[1,2-b]pyrazola-6(3,5)-pyrazolacyclotridecaphane-1^2-carboxylic acid], the IC50 was ≤ 100 nM.

Another assay deals with Mcl-1 (Homo sapiens, UniProt Q07820). Nature of the assay: Mcl-1 Homogeneous Time Resolved Fluorescence (HTRF) binding assay.
Sequence of Mcl-1 (Q07820 whole entry): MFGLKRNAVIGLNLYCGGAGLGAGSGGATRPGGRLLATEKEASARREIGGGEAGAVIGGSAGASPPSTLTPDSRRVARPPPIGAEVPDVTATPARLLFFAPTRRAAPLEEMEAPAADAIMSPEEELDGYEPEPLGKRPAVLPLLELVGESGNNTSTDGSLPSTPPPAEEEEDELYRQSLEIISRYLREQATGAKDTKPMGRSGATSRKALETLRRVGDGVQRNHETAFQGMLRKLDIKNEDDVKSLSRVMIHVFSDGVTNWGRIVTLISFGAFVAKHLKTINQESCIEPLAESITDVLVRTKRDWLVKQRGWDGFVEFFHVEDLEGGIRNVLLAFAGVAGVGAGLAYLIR
Conditions: not given
For orientation: In TR-FRET formats the signal depends on donor and acceptor labels being close together.
Turning to `Cn1nc2cc1CSc1cc3c(c(c1)OCCCc1c(C(=O)O)n(C)c4c(c(Cl)ccc14)-c1c(nn4c1CCCC4)CSC2)NCCC3` (single isomer, unassigned) [Example 2A, (Ra)-(+)-(Z)-1^6-chloro-1^1,6^1-dimethyl-2^4,2^5,2^6,2^7,9^1,9^2,9^3,9^4-octahydro-1^1H,6^1H-10-oxa-4,8-dithia-9(6,8)-quinolina-2(3 ,2)-pyrazolo[1,5-a]pyridina-1(7 ,3)-indola-6(3,5)-pyrazolacyclotridecaphane-1^2-carboxylic acid], the IC50 is < 10 nM.

As to `Cn1nc2cc1CSc1cc3c(c(c1)OCCCc1c(C(=O)O)n(C)c4c(c(Cl)ccc14)-c1c(nn4c1CCC4)CSC2)NCCC3` (single isomer, unassigned) [Example 1A, (Ra)-(+)-(Z)-1^6-Chloro-1^1,6^1-dimethyl-2^5,2^6,9^1,9^2,9^3,9^4-hexahydro-1^1H,2^4H,6^1H-10-oxa-4,8-dithia-9(6,8)-quinolina-1(7,3)-indola-2(3,2)-pyrrolo[1,2-b]pyrazola-6(3,5)-pyrazolacyclotridecaphane-1^2-carboxylic acid], the IC50 is < 10 nM.
